This note sets out measurements from patent publication US8575181B2, “Purine derivatives for use in the treatment of allergic, inflammatory and infectious diseases” (GlaxoSmithKline LLC, priority 2008, dated 2013).

Common to all, as to type: cell-based
The test system of assay [1] is Interferon-α. The assay is described as follows: Induction of Interferon-α using cryopreserved human PBMCs. The conditions noted are these: PBMC, 24 h, 24 h incubation, normalised to 1 uM resiquimod and DMSO, read-out: mean pEC50 (induction of Interferon-α) (converted). On the procedure:
Assay for the Induction of Interferon-α Using Cryopreserved Human Peripheral Blood Mononuclear Cells (PBMCs)
Compounds were dissolved in DMSO. Serial 2-fold dilutions with DMSO were prepared and 0.25 μl dispensed into 384-well clear Greiner polypropylene plates.
Blood samples of up to 200 ml were obtained from healthy human donors. Whole blood in 25 ml volumes was overlaid onto 15 ml Ficoll gradients in Leucosep tubes, and centrifuged at 1000 g for 20 min. Cells in the band at the plasma/histopaque interface were carefully removed and washed twice with PBS (centrifuged at 400 g for 5 min to harvest). The final pellet was resuspended in freezing medium (90% Heat-inactivated serum, 10% DMSO) to a cell concentration of 4×10^7 cells/ml. The resuspended cells were then cryopreserved (frozen) using a rate controlled freezer, and stored at −140° C. for up to 4 months.
Incubation and Assay for Interferon-α
Immediately prior to assay, vials of cryopreserved (frozen) PBMCs were thawed rapidly in a water bath at 37° C. A 1:10 dilution of the cells in trypan blue was prepared and counted. The PBMCs were then diluted in growth media [RPMI 1640 containing 10% fetal calf serum (invitrogen), Penicillin+[…] (Gibco cat. #25030-024, 1:50), L-Glutamine 2 mM, and 1000 units/ml recombinant human IFN-gamma (Preprotech catalogue #300-02)] to a density of 1×10^6 cells/ml, and 50 ul/well dispensed to 384-well clear Greiner polypropylene plates containing 0.25 μl DMSO or test compound in 0.25 μl DMSO. […] Plates were incubated for 24 h at 37° C. in 5% CO2.
A multi-isoform immunoassay was used to quantify IFN-α in PBMC supernatants. Rabbit polyclonal antibody against human IFN-α (catalogue number 31101, Stratech Scientific) was diluted 1:10000 in assay buffer (RPMI 1640 containing 10% fetal calf serum, Invitrogen) and 20 μl was added to each well of an MSD (Meso-Scale Discovery) single small-spot 384-well GAR (goat anti-rabbit antibody coated) plate. The plate was incubated for 1 h at room temperature with vigorous shaking. Following three washes with PBS, 20 μl of cell supernatant were added to each well of the plate. The plate was then incubated for 1 h at room temperature with vigorous shaking. A pair of monoclonal antibodies to IFN-α (catalogue numbers 21100 and 21112, Stratech Scientific) were labelled with sulfo-TAG (MSD), diluted 1:1000 in assay buffer and 20 μl added to each well of the plate. The plate was further incubated for 1 h at room temperature with vigorous shaking. Following three washes with PBS, 30 μl of ×2 T buffer (MSD) was added to each well and the plate was read on an MSD Sector 6000 plate reader.
Data were normalised to internal plate controls of 1 uM resiquimod (n=16) and DMSO (n=16). pEC50 values were derived by 4-parameter curve fit with IRLS in ActivityBase, from 11-point, two-fold serial dilution of test compounds.

The subject of assay [2] is Interferon-α. The experiment in a line: Induction of Interferon-α using fresh human PBMCs. The conditions noted are these: PBMC, two donors, 24 hr incubation, percentage of 2 μM resiquimod control, read-out: mean pEC50 for induction of IFN-α (converted). On the procedure: (§1) Assay for the Induction of Interferon-α and TNF-α Using Fresh Human Peripheral Blood Mononuclear Cells (PBMCs)
(§2) Compounds were dissolved and serially diluted in DMSO to give 100× the required concentration range using a Biomek 2000. 1 ul of test compound was transferred into 96-well tissue culture plates using a Biomek FX. Each compound was assayed in duplicate for each donor. Each plate contained a dilution series of the TLR7/8 agonist resiquimod as standard and Column 11 contained 1 μl of 200 μM resiquimod (giving a 2 μM final concentration, used to define the approximate maximal response to resiquimod).
(§3) Blood samples from two human donors were collected into sodium heparin (10 U/ml). 25 ml volumes of whole blood were overlaid onto 15 mls Histopaque in Leucosep tubes which were centrifuged at 800 g for 20 min and the band at the plasma/histopaque interface carefully removed. The collected cells were centrifuged at 2500 rpm for 10 min and the pellet resuspended in 10 ml of media (RPMI 1640 (Low endotoxin) supplemented with 10% v/v foetal calf serum (FCS, low endotoxin) 100 U/ml penicillin G, 100 μg/ml streptomycin, 10 mM L-glutamine and 1× non-essential amino acids). A 1:20 dilution of the cells was prepared using trypan blue & the cells counted using a haemocytometer. The PBMCs were diluted to give a final concentration of 2×10^6/ml and 100 ul of this cells suspension was added to wells containing 1 μl of diluted test compound.
(§4) Incubation and Assays for Interferon-α and TNF-α
(§5) The cell preparations were incubated for 24 hr (37° C., 95% air, 5% CO2) after which a sample of the supernatant was removed using the Biomek FX and assayed for both IFN-α and TNF-α using the MSD (Mesoscale Discovery) electrochemiluminescence assay platform. The IFN-α assay was carried out similarly to that described above. The TNF-α assay was carried out as per kit instructions (Cat No K111BHB).
(§6) Cytokine released was expressed as a percentage of the 2 μM resiquimod control (column 11). This percentage was plotted against compound concentration and the pEC50 for the response determined by non-linear least squares curve fitting. For the IFN-α responses generally a 4 parameter logistic model was selected. For the TNF responses where a clear maximum response was obtained (i.e. a well defined plateau in the response was observed) then a 4 parameter model was generally used. If the upper asymptote of the curve wasn't well defined then the curve fitting was generally constrained to a maximal response of 100% (i.e. to the response to 2 μM resiquimod) or to the response of the highest concentration tested if this was greater than the resiquimod response. Some curves were bell shaped for one or both cytokines and the cytokine data on the down slope of the bell shaped response (i.e. concentrations above those giving the maximal response) were generally excluded from the fit, usually with the exception of the concentration immediately above the peak response. Curve fitting thus concentrated on the up slope of the dose response curve.

The test system of assay [3] is TNF-α. The experiment in a line: Induction of TNF-α using fresh human PBMCs. The conditions noted are these: PBMC, two donors, 24 hr incubation, percentage of 2 μM resiquimod control, read-out: mean pEC50 for induction of TNF-α (converted). As to the method: as §1, §2, §3, §4, §5, §6

For `CCCCOc1nc(N)c2[nH]c(=O)n(CCCN[C@H]3CCCO3)c2n1` [Example 1, 6-Amino-2-(butyloxy)-9-{3-[(2R)-tetrahydro-2-furanylamino]propyl}-7,9-dihydro-8H-purin-8-one], the EC50 in assay [1] was below 10 µM.
Same read-out and setting: under `CCCCOc1nc(N)c2[nH]c(=O)n(CCCN[C@@H]3CCCO3)c2n1` [Example 2, 6-Amino-2-(butyloxy)-9-{3-[(2S)-tetrahydro-2-furanylamino]propyl}-7,9-dihydro-8H-purin-8-one] stands below 10 µM.
For `CCCCOc1nc(N)c2[nH]c(=O)n(CCCNCC3CCCO3)c2n1` (centres unmarked) [Example 3, 6-Amino-2-(butyloxy)-9-{3-[(tetrahydro-2-furanylmethyl)amino]propyl}-7,9-dihydro-8H-purin-8-one], the figures for the EC50 in assay [1], in assay [2] and in assay [3] were below 10 µM, below 1 µM and above 10 µM, respectively.
For `CCCCOc1nc(N)c2[nH]c(=O)n(CCCNCC3CCOC3)c2n1` (centres unmarked) [Example 4, 6-Amino-2-(butyloxy)-9-{3-[(tetrahydro-3-furanylmethyl)amino]propyl}-7,9-dihydro-8H-purin-8-one], the EC50 in assay [1] was below 10 µM.
`CCCCOc1nc(N)c2[nH]c(=O)n(CCCNCCC3CCCO3)c2n1` (centres unmarked) [Example 5, 6-Amino-2-(butyloxy)-9-(3-{[2-(tetrahydro-2-furanyl)ethyl]amino}propyl)-7,9-dihydro-8H-purin-8-one]: the figures for the EC50 in assay [1], in assay [2] and in assay [3] were below 10 µM, below 1 µM and above 10 µM, respectively.
Take `CCCCOc1nc(N)c2[nH]c(=O)n(CCCNCC3CCCCO3)c2n1` (centres unmarked) [Example 6, 6-Amino-2-(butyloxy)-9-{3-[(tetrahydro-2H-pyran-2-ylmethyl)amino]propyl}-7,9-dihydro-8H-purin-8-one]: in assay [1], the EC50 is below 10 µM.
Turning to `CCCCOc1nc(N)c2[nH]c(=O)n(CCCNCC3CCCOC3)c2n1` (centres unmarked) [Example 7, 6-Amino-2-(butyloxy)-9-{3-[(tetrahydro-2H-pyran-3-ylmethyl)amino]propyl}-7,9-dihydro-8H-purin-8-one], in assay [1], the EC50 is below 10 µM.
As for `CCCCOc1nc(N)c2[nH]c(=O)n(CCCNCC3CCOCC3)c2n1` [Example 8, 6-Amino-2-(butyloxy)-9-{3-[(tetrahydro-2H-pyran-4-ylmethyl)amino]propyl}-7,9-dihydro-8H-purin-8-one], the results for the EC50 in assay [1], in assay [2] and in assay [3] were below 10 µM, below 1 µM and above 10 µM, respectively.
Take `CCCCOc1nc(N)c2[nH]c(=O)n(CCCNCCC3CCCCO3)c2n1` (centres unmarked) [Example 9, 6-Amino-2-(butyloxy)-9-(3-{[2-(tetrahydro-2H-pyran-2-yl)ethyl]amino}propyl)-7,9-dihydro-8H-purin-8-one]: the values for the EC50 in assay [1], in assay [2] and in assay [3] were below 10 µM, below 1 µM and above 10 µM, respectively.
Regarding `CCCCOc1nc(N)c2[nH]c(=O)n(CCCNCCC3CCCOC3)c2n1` (centres unmarked) [Example 10, 6-Amino-2-(butyloxy)-9-(3-{[2-(tetrahydro-2H-pyran-3-yl)ethyl]amino}propyl)-7,9-dihydro-8H-purin-8-one], in assay [1], the EC50 is below 10 µM.
For `CCCCOc1nc(N)c2[nH]c(=O)n(CCCNCCC3CCOCC3)c2n1` [Example 11, 6-Amino-2-(butyloxy)-9-(3-{[2-(tetrahydro-2H-pyran-4-yl)ethyl]amino}propyl)-7,9-dihydro-8H-purin-8-one], in assay [1], the EC50 is below 10 µM.
On to `CCC[C@H](C)Oc1nc(N)c2[nH]c(=O)n(CCCNCC3CCCO3)c2n1` (stereo partly drawn) [Example 12, 6-Amino-2-{[(1S)-1-methylbutyl]oxy}-9-{3-[(tetrahydro-2-furanylmethyl)amino]propyl}-7,9-dihydro-8H-purin-8-one], for which the EC50 in assay [2] is below 0.1 µM; in assay [3] it was above 1 µM.
For `CCC[C@H](C)Oc1nc(N)c2[nH]c(=O)n(CCCNCCC3CCCO3)c2n1` (stereo partly drawn) [Example 13, 6-Amino-2-{[(1S)-1-methylbutyl]oxy}-9-(3-{[2-(tetrahydro-2-furanyl)ethyl]amino}propyl)-7,9-dihydro-8H-purin-8-one], in that order: below 0.1 µM and above 1 µM.
Consider `CCC[C@H](C)Oc1nc(N)c2[nH]c(=O)n(CCCNCC3CCOCC3)c2n1` [Example 14, 6-Amino-2-{[(1S)-1-methylbutyl]oxy}-9-{3-[(tetrahydro-2H-pyran-4-ylmethyl)amino]propyl}-7,9-dihydro-8H-purin-8-one], for which the EC50 was below 10 µM in assay [1], below 0.1 µM in assay [2] and above 1 µM in assay [3].
In the case of `CCCCNc1nc(N)c2[nH]c(=O)n(CCCNCC3CCCO3)c2n1` (centres unmarked) [Example 15, 6-Amino-2-(butylamino)-9-{3-[(tetrahydro-2-furanylmethyl)amino]propyl}-7,9-dihydro-8H-purin-8-one], the EC50 in assay [1] is below 10 µM.
Consider `CCCCNc1nc(N)c2[nH]c(=O)n(CCCNCCC3CCCO3)c2n1` (centres unmarked) [Example 16, 6-Amino-2-(butylamino)-9-(3-{[2-(tetrahydro-2-furanyl)ethyl]amino}propyl)-7,9-dihydro-8H-purin-8-one], for which the EC50 in assay [1] is below 10 µM; in assay [2], below 1 µM; in assay [3], above 10 µM.
Take `CCCCNc1nc(N)c2[nH]c(=O)n(CCCNCC3CCOCC3)c2n1` [Example 17, 6-Amino-2-(butylamino)-9-{3-[(tetrahydro-2H-pyran-4-ylmethyl)amino]propyl}-7,9-dihydro-8H-purin-8-one]: the EC50 in assay [1] was below 10 µM.
Same read-out and setting: under `CCCCNc1nc(N)c2[nH]c(=O)n(CCCNCCC3CCCCO3)c2n1` (centres unmarked) [Example 18, 6-Amino-2-(butylamino)-9-(3-{[2-(tetrahydro-2H-pyran-2-yl)ethyl]amino}propyl)-7,9-dihydro-8H-purin-8-one] stands below 10 µM.
